Source: PubChem BioAssay AID493095 (Sanford-Burnham Center for Chemical Genomics, 2011)

assay: cell-free peptide binding blockers, HIV fusion – biochemical, set 2, fluorescence quenching, SAR follow-up (AID 493095); details: 30 min

IC50	SMILES
5.43 µM	O=C(O)CCCN1C(=O)/C(=C/c2ccc(-c3cccc(C(F)(F)F)c3)o2)SC1=S
22.9 µM	CCOC(=O)C1=C(C)N=c2s/c(=C\c3ccc(OCC(=O)O)cc3)c(=O)n2C1c1ccc(OC)c(OCC)c1 (centres undefined)
5.98 µM	Cc1ccc(-n2cccc2/C=C2/C(=N)N3C(=NC2=O)SN=C3S(C)(=O)=O)cc1C
3.26 µM	O=C(O)CCCN1C(=O)/C(=C\c2ccc(-c3ccc(Br)cc3)o2)SC1=S
6.55 µM	CS(=O)(=O)C1=NSC2=NC(=O)/C(=C\c3cccn3-c3ccc(Cl)c(Cl)c3)C(=N)N21
8.05 µM	COc1cccc(C2C(C(=O)Nc3ccccc3)=C(C)N=c3sc(=Cc4ccc(OCC(=O)O)cc4)c(=O)n32)c1 (centres undefined)
12.2 µM	COc1ccc(-n2cccc2/C=C2/C(=N)N3C(=NC2=O)SN=C3S(C)(=O)=O)cc1Cl
48.2 µM	O=C(O)c1ccc(C2Nc3ccc(S(=O)(=O)Nc4cc(Cl)ccc4Cl)cc3C3C=CCC32)cc1 (centres undefined)
8.89 µM	CCOC(=O)C1=C(C)N=c2s/c(=C\c3ccc(OCC(=O)O)cc3)c(=O)n2C1c1ccc(Cl)cc1 (centres undefined)
19.6 µM	CCOC(=O)C1=C(C)N=c2sc(=Cc3ccc(OCC(=O)O)cc3)c(=O)n2C1c1ccccc1 (centres undefined)
12.9 µM	COc1ccc(-c2ccc(/C=C3\SC(=S)N(CCCC(=O)O)C3=O)o2)cc1
19.1 µM	CC1=C(C(=O)OC(C)C)C(c2ccc(Cl)cc2)n2c(s/c(=C\c3ccc(OCC(=O)O)cc3)c2=O)=N1 (centres undefined)
11.1 µM	O=C(O)CCCN1C(=O)/C(=C\c2ccc(-c3ccc(F)cc3)o2)SC1=S
17.3 µM	O=C(O)c1ccc([C@@H]2Nc3ccc(S(=O)(=O)Nc4cccc5ccccc45)cc3[C@@H]3C=CC[C@@H]32)cc1
20.2 µM	CCOC(=O)C1=C(C)N=c2sc(=Cc3ccc(OCC(=O)O)cc3)c(=O)n2C1c1ccc(OC)cc1OC (centres undefined)
5.8 µM	CS(=O)(=O)C1=NSC2=NC(=O)/C(=C\c3cccn3-c3cccc(C(F)(F)F)c3)C(=N)N21
30 µM	CS(=O)(=O)C1=NSC2=NC(=O)/C(=C\c3cccn3-c3cc(Cl)cc(Cl)c3)C(=N)N21
6.31 µM	COc1cccc(-n2cccc2/C=C2/C(=N)N3C(=NC2=O)SN=C3S(C)(=O)=O)c1
6.24 µM	Cc1ccc(-n2cccc2/C=C2/C(=N)N3C(=NC2=O)SN=C3S(C)(=O)=O)cc1
1.38 µM	O=C(O)CCC(C(=O)O)N1C(=O)/C(=C\c2ccco2)SC1=S (centres undefined)

IC50	SMILES
31.6 µM	CCOC(=O)C1=C(C)N=c2sc(=Cc3ccc(OCC(=O)O)cc3)c(=O)n2C1c1ccccc1OC (centres undefined)
3.71 µM	CS(=O)(=O)C1=NSC2=NC(=O)/C(=C\c3cccn3-c3cccc(F)c3)C(=N)N21
7.41 µM	CCOC(=O)C1=C(c2ccccc2)N=c2s/c(=C\c3ccc(OCC(=O)O)cc3)c(=O)n2C1c1cccc(OC)c1 (centres undefined)
9.16 µM	CS(=O)(=O)C1=NSC2=NC(=O)/C(=C\c3cccn3-c3cccc(Cl)c3)C(=N)N21
6.28 µM	CCOC(=O)C1=C(C)N=c2sc(=Cc3ccc(OCC(=O)O)cc3)c(=O)n2C1c1ccc(F)cc1 (centres undefined)
53 µM	CCc1ccc(-n2cccc2/C=C2/C(=N)N3C(=NC2=O)SN=C3S(C)(=O)=O)cc1
10.8 µM	O=C(O)CCCN1C(=O)/C(=C/c2cc3ccccc3o2)SC1=S
5.36 µM	CS(=O)(=O)C1=NSC2=NC(=O)/C(=C\c3cccn3-c3ccc(Br)cc3)C(=N)N21
25.2 µM	CS(=O)(=O)C1=NSC2=NC(=O)/C(=C\c3cccn3-c3ccc(Cl)cc3)C(=N)N21
4.27 µM	O=C(O)CCCN1C(=O)/C(=C\c2ccc(-c3cccc(Cl)c3)o2)SC1=S
7.69 µM	Cc1c2c(=O)n(-c3nc4ccccc4s3)nc-2cc(O)n1Cc1ccccc1Cl
40.3 µM	CCOc1ccc(-n2cccc2/C=C2/C(=N)N3C(=NC2=O)SN=C3S(C)(=O)=O)cc1
7.82 µM	CCOC(=O)C1=C(C)N=c2sc(=Cc3ccc(OCC(=O)O)cc3)c(=O)n2C1c1cc(OC)c(OC)c(OC)c1 (centres undefined)
15.4 µM	O=C(O)c1ccc(C[n+]2c(-c3ccc([N+](=O)[O-])cc3)csc2Nc2ccccc2)cc1
9.41 µM	CS(=O)(=O)C1=NSC2=NC(=O)/C(=C\c3cccn3-c3ccc(F)cc3)C(=N)N21
5.6 µM	COc1ccc(CCn2c(O)cc3nn(-c4nc5ccccc5s4)c(=O)c-3c2C)cc1
28.9 µM	O=C(O)CCCN1C(=O)/C(=C/c2ccc(-c3ccc(Cl)c(Cl)c3)o2)SC1=S
44.8 µM	O=C(O)CCCN1C(=O)/C(=C\c2ccc(-c3ccc(Cl)cc3)o2)SC1=S
69.1 µM	COc1ccccc1NS(=O)(=O)c1ccc2c(c1)C1C=CCC1C(c1ccc(C(=O)O)cc1)N2 (centres undefined)
